Patent US12024531B2, “Immunoproteasome inhibitors” (Principia Biopharma Inc., priority 2017, dated 2024)

Experiments:
Format in all cases: biochemical
[1] = target: immunoproteasome LMP2 subunit (Homo sapiens, UniProt P28065); experiment: Caliper-based proteasome enzymatic activity assay, LMP2; conditions: human recombinant immunoproteasome 0.3 nM, FAM peptide substrate 1 μM, rt 2 h
[2] = target: immunoproteasome LMP7/B5i subunit (Homo sapiens, UniProt P28062); experiment: Caliper-based proteasome enzymatic activity assay, LMP7; conditions: human recombinant immunoproteasome 0.3 nM, FAM peptide substrate 1 μM, rt 3 h
[3] = target: constitutive proteasome β5c subunit (Homo sapiens, UniProt P28074); experiment: Caliper-based proteasome enzymatic activity assay, β5c; conditions: human recombinant constitutive proteasome 0.3 nM, FAM peptide substrate 1 μM, rt 3 h

Row | Structure (SMILES) | IC50 [1] [nM] | IC50 [2] [nM] | IC50 [3] [nM]
1 | N#CC(=Cc1cccc(CCOC(=O)N[C@@H](Cc2ccccc2)B(O)O)c1)c1ccccn1 [Example 36, (R)-(1-(((3-(2-cyano-2-(pyridin-2-yl)vinyl)phenethoxy)carbonyl)amino)-2-phenylethyl)boronic Acid] | 3540 | 8 | 320
2 | C[C@@H]1COC[C@@H](C)N1C(=O)C(C#N)=Cc1cccc(CCOC(=O)N[C@@H](Cc2ccccc2)B(O)O)c1 [Example 65, ((R)-1-(((3-(2-cyano-3-((3R,5R)-3,5-dimethylmorpholino)-3-oxoprop-1-en-1-yl)phenethoxy)carbonyl)amino)-2-phenylethyl)boronic Acid] | 3560 | 0.6 | 1190
3 | CCN(CC)C(=O)C(C#N)=Cc1cccc(CCOC(=O)N[C@@H](Cc2ccc(Cl)cc2)B(O)O)c1 [Example 86, (R)-(2-(4-chlorophenyl)-1-(((3-(2-cyano-3-(diethylamino)-3-oxoprop-1-en-1-yl)phenethoxy)carbonyl)amino)ethyl)boronic Acid] | > 5000 | 0.9 | 779
4 | CCN(CC)C(=O)C(C#N)=Cc1cc(C#N)cc(CCOC(=O)N[C@@H](Cc2ccc(C)cc2)B(O)O)c1 [Example 101, (R)-(1-(((3-cyano-5-(2-cyano-3-(diethylamino)-3-oxoprop-1-en-1-yl)phenethoxy)carbonyl)amino)-2-(p-tolyl)ethyl)boronic Acid] | > 5000 | 0.6 | 440
5 | CN(CC(F)(F)F)C(=O)C(C#N)=Cc1cccc(CCOC(=O)N[C@@H](Cc2ccccc2)B(O)O)c1 [Example 91, (R)-(1-(((3-(2-cyano-3-(methyl(2,2,2-trifluoroethyl)amino)-3-oxoprop-1-en-1-yl)phenethoxy)carbonyl)amino)-2-phenylethyl)boronic Acid] | > 5000 | 2.3 | 3840
6 | Cc1ccc(C[C@H](NC(=O)OCCc2cccc(C=C(C#N)C(=O)N3C4CCC3COC4)c2)B(O)O)cc1 [Example 89, ((1R)-1-(((3-(3-(3-oxa-8-azabicyclo[3.2.1]octan-8-yl)-2-cyano-3-oxoprop-1-en-1-yl)phenethoxy)carbonyl)amino)-2-(p-tolyl)ethyl)boronic Acid] | > 5000 | 0.5 | 869
7 | CC(C)(C)NC(=O)C(C#N)=Cc1cccc(COC(=O)N[C@@H](Cc2ccccc2)B(O)O)c1 [Example 16, (R)-(1-((((3-(3-(tert-butylamino)-2-cyano-3-oxoprop-1-en-1-yl)benzyl)oxy)carbonyl)amino)-2-phenylethyl)boronic Acid] | 3570 | 33 | 3680
8 | N#CC(=Cc1cccc(OCCC(=O)N[C@@H](Cc2coc3ccccc23)B(O)O)c1)c1ccccn1 [Example 23, (R)-(2-(benzofuran-3-yl)-1-(3-(3-(2-cyano-2-(pyridin-2-yl)vinyl)phenoxy)propanamido)ethyl)boronic Acid] | > 5000 | 0.8 | 8
9 | CCN(CC)C(=O)C(C#N)=Cc1cccc(CCNC(=O)N[C@@H](Cc2ccccc2)B(O)O)c1 [Example 61, (R)-(1-(3-(3-(2-cyano-3-(diethylamino)-3-oxoprop-1-en-1-yl)phenethyl)ureido)-2-phenylethyl)boronic Acid] | > 5000 | 43.2 | > 5000
10 | N#CC(=Cc1cc(CO)cc(CCOC(=O)N[C@@H](Cc2ccccc2)B(O)O)c1)c1ccccn1 [Example 76, (R)-(1-(((3-(2-cyano-2-(pyridin-2-yl)vinyl)-5-(hydroxymethyl)phenethoxy)carbonyl)amino)-2-phenylethyl)boronic Acid] | > 5000 | 3.2 | 3410
11 | Cc1ccc(C[C@H](NC(=O)OCCc2cccc(C=C(C#N)C(=O)N3[C@@H](C)COC[C@@H]3C)c2)B(O)O)cc1 [Example 92, ((R)-1-(((3-(2-cyano-3-((3S,5S)-3,5-dimethylmorpholino)-3-oxoprop-1-en-1-yl)phenethoxy)carbonyl)amino)-2-(p-tolyl)ethyl)boronic Acid] | > 5000 | 0.6 | 532
12 | Cc1ccc(C[C@H](NC(=O)NCCc2cccc(C=C(C#N)c3ncccn3)c2)B(O)O)cc1 [Example 83, (R)-(1-(3-(3-(2-cyano-2-(pyrimidin-2-yl)vinyl)phenethyl)ureido)-2-(p-tolyl)ethyl)boronic Acid] | > 5000 | 37 | 1970

Now those with a lower IC50 [1], led by results:

Row | IC50 [1] [nM] | IC50 [2] [nM] | IC50 [3] [nM] | Structure (SMILES)
13 | 223 | 7.3 | 162 | CN(C)C(=O)C(C#N)=Cc1ccc(Cl)c(OCCC(=O)N[C@@H](Cc2ccccc2)B(O)O)c1Cl [Example 38, (R)-(1-(3-(2,6-dichloro-3-(2-cyano-3-(dimethylamino)-3-oxoprop-1-en-1-yl)phenoxy)propanamido)-2-phenylethyl)boronic Acid]
14 | 180 | 4 | 60 | N#CC(=Cc1cccc(OCCC(=O)N[C@@H](Cc2ccccc2)B(O)O)c1)C(=O)N1CCN(C2COC2)CC1 [Example 32, (R)-(1-(3-(3-(2-cyano-3-(4-(oxetan-3-yl)piperazin-1-yl)-3-oxoprop-1-en-1-yl)phenoxy)propanamido)-2-phenylethyl)boronic Acid]
15 | 49 | 2 | 34 | N#CC(=Cc1ccc(F)c(OCCC(=O)N[C@@H](Cc2ccccc2)B(O)O)c1)c1ccccn1 [Example 28, (R)-(1-(3-(5-(2-cyano-2-(pyridin-2-yl)vinyl)-2-fluorophenoxy)propanamido)-2-phenylethyl)boronic Acid]
16 | 100 | 5 | 95 | N#CC(=Cc1cccc(OCCC(=O)N[C@@H](Cc2ccccc2)B(O)O)c1)c1ccc(C(F)(F)F)cn1 [Example 33, (R)-(1-(3-(3-(2-cyano-2-(5-(trifluoromethyl)pyridin-2-yl)vinyl)phenoxy)propanamido)-2-phenylethyl)boronic Acid]
17 | 370 | 4.6 | 141 | COCCNC(=O)C(C#N)=Cc1cccc(OCCC(=O)N[C@@H](Cc2ccccc2)B(O)O)c1 [Example 46, (R)-(1-(3-(3-(2-cyano-3-((2-methoxyethyl)amino)-3-oxoprop-1-en-1-yl)phenoxy)propanamido)-2-phenylethyl)boronic Acid]
18 | 223 | 16.8 | 495 | CN(C)C(=O)C(C#N)=Cc1cccc(OCCC(=O)N[C@@H](Cc2ccccc2)B(O)O)c1F [Example 37, (R)-(1-(3-(3-(2-cyano-3-(dimethylamino)-3-oxoprop-1-en-1-yl)-2-fluorophenoxy)propanamido)-2-phenylethyl)boronic Acid]
19 | 438 | 5.3 | 72.2 | COCC(C)(C)NC(=O)C(C#N)=Cc1cccc(OCCC(=O)N[C@@H](Cc2ccccc2)B(O)O)c1 [Example 47, (R)-(1-(3-(3-(2-cyano-3-((1-methoxy-2-methylpropan-2-yl)amino)-3-oxoprop-1-en-1-yl)phenoxy)propanamido)-2-phenylethyl)boronic Acid]
20 | 2900 | 4.9 | 1130 | CN(C)C(=O)C(C#N)=Cc1cccc(COCC(=O)N[C@@H](Cc2ccccc2)B(O)O)c1 [Example 49, (R)-(1-(2-((3-(2-cyano-3-(dimethylamino)-3-oxoprop-1-en-1-yl)benzyl)oxy)acetamido)-2-phenylethyl)boronic Acid]
21 | 73.9 | 8.5 | 70 | N#CC(=Cc1cccc(OCCC(=O)N[C@@H](Cc2ccccc2)B(O)O)c1F)c1ccccn1 [Example 40, (R)-(1-(3-(3-(2-cyano-2-(pyridin-2-yl)vinyl)-2-fluorophenoxy)propanamido)-2-phenylethyl)boronic Acid]
22 | 970 | 5 | 74 | N#CC(=Cc1cccc(OCCC(=O)N[C@@H](Cc2ccccc2)B(O)O)c1)C(=O)NC1CCOCC1 [Example 10, (R)-1-(3-(3-(2-cyano-3-oxo-3-(tetrahydro-2H-pyran-4-ylamino)prop-1-enyl)phenoxy)propanamido)-2-phenylethylboronic Acid]
23 | 17 | 6 | 36 | COc1ccc(C=C(C#N)c2ccccn2)cc1OCCC(=O)N[C@@H](Cc1ccccc1)B(O)O [Example 29, (R)-(1-(3-(5-(2-cyano-2-(pyridin-2-yl)vinyl)-2-methoxyphenoxy)propanamido)-2-phenylethyl)boronic Acid]
24 | 140 | 3 | 95 | CN(C)C(=O)C(C#N)=Cc1cccc(OCCC(=O)N[C@@H](Cc2ccccc2)B(O)O)c1 [Example 5, (R)-1-(3-(3-(2-cyano-3-(dimethylamino)-3-oxoprop-1-enyl)phenoxy)propanamido)-2-phenylethylboronic Acid]
25 | 122 | 2.9 | 39.4 | N#CC(=Cc1cc(OCCC(=O)N[C@@H](Cc2ccccc2)B(O)O)ccc1F)c1ccccn1 [Example 43, (R)-(1-(3-(3-(2-cyano-2-(pyridin-2-yl)vinyl)-4-fluorophenoxy)propanamido)-2-phenylethyl)boronic Acid]
26 | 393 | 6 | 192 | CN(C)C(=O)C(C#N)=Cc1cc(OCCC(=O)N[C@@H](Cc2ccccc2)B(O)O)ccc1F [Example 42, (R)-(1-(3-(3-(2-cyano-3-(dimethylamino)-3-oxoprop-1-en-1-yl)-4-fluorophenoxy)propanamido)-2-phenylethyl)boronic Acid]
27 | 3130 | 2.1 | 388 | Cc1ccc(C[C@H](NC(=O)CCOc2cccc(C=C(C#N)C(=O)N(C)C)c2)B(O)O)c(C)c1 [Example 44, (R)-(1-(3-(3-(2-cyano-3-(dimethylamino)-3-oxoprop-1-en-1-yl)phenoxy)propanamido)-2-(2,4-dimethylphenyl)ethyl)boronic Acid]
